Measurements as given in US20060252107A1, “Compositions and methods for diagnosing and treating retinal diseases” (Acucela, Inc., priority 2005, published 2006).

Tests used:
[1] = system: photoreceptor cells; test: mature retinal cell culture system with A2E as cell stressor, photoreceptor survival; type: cell-based, Porcine
Procedure: (§1) The retinal cell culture system may be exposed to A2E at any concentration between 1 pM and 200 μM (e.g., 1 pM, 10 pM, 100 pM, 250 pM, 500 pM, 750 pM, 1 nM, 10 nM, 50 nM, 100 nM, 250 nM, 500 nM, 750 nM, 1 μM, 2 μM, 5 μM, 7.5 μM, 10 μM, 15 μM, 20 μM, 25 μM, 40 μM, 50 μM, 75 μM, 100 μM, 120 μM, 200 μM); or 250 μM, 500 μM, or 750 μM), between 1 μM and 40 μM, or between 10 μM and 20 μM, for a period of time, for example, between 2 and 48 hours or between 12 and 36 hours. In another embodiment, the cell culture may be exposed to lower concentrations of A2E (for example, between 1 pM and 10 μM or between 1 nM and 1 μM) for longer times (such as about one week, about two weeks, or about one month (4 weeks)).
(§2) Porcine eyes are obtained from Kapowsin Meats, Inc. (Graham, Wash.). Eyes are enucleated, and muscle and tissue are cleaned away from the orbit. Eyes are cut in half along their equator and the neural retina is dissected from the […] part of the eye in buffered saline solution, according to standard methods known in the art. […]
(§3) The retinal neuronal cells are cultured for 1, 3, 6, and 8 weeks, and the cells are analyzed by immunohistochemistry at each time point. […]
(§4) Cultures are analyzed by counting rhodopsin-labeled photoreceptors and NFM-labeled ganglion cells using an Olympus 1X81 or CZX41 microscope (Olympus, Tokyo, Japan). […]

[2] = system: ganglion cells; test: mature retinal cell culture system with A2E as cell stressor, ganglion cell survival; type: cell-based, Porcine; details: 20 μM A2E for 48 hours
Procedure: as §1, §2, §3, §4

CC(C=CC1=C(C)CCCC1(C)C)=CC=CC(C)=Cc1cc(C=CC=C(C)C=CC2=C(C)CCCC2(C)C)cc[n+]1CCO [A2E, N-retinylidene-N-retinyl-ethanolamine]
death of photoreceptor cells ([1]; 20 μM A2E for 48 hours, compared to photoreceptor cells not exposed to A2E): more than 90%
effect of exposure of the retinal neuronal cell culture system to A2E ([1]; concentration and time not stated): selective killing of certain cells, particularly photoreceptor cells
survival of ganglion cells [2]: not adversely affected
